One assay addresses T1, MAPK15 (Homo sapiens, UniProt Q8TD08).
T1 construct: purchased in-house DSF panel (SGC Frankfurt)
T1 sequence (Q8TD08 1-346): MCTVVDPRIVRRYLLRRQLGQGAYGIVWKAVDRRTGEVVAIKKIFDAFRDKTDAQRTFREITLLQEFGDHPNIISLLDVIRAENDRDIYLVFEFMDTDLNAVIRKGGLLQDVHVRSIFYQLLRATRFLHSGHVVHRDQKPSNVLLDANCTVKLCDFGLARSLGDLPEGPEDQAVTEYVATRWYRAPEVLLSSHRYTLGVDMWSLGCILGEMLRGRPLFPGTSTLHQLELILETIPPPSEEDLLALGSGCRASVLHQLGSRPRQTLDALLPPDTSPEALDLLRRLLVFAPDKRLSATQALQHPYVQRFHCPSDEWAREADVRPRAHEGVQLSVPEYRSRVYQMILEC
Nature of the assay: DSF. Format: binding.

For another assay, the target named is T2, STK38L (Homo sapiens, UniProt Q9Y2H1).
T2 construct: purchased in-house DSF panel (SGC Frankfurt)
T2 sequence (Q9Y2H1 90-453): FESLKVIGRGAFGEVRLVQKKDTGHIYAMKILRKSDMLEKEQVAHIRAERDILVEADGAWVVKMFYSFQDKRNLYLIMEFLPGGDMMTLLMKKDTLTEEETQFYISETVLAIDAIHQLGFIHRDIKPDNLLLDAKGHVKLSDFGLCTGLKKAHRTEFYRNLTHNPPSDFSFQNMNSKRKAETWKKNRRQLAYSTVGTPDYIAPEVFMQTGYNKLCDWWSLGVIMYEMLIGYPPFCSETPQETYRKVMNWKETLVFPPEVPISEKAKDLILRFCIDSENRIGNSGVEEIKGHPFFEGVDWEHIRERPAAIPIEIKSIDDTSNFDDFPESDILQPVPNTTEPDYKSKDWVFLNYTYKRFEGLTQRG
Kind of assay: DSF. Format: binding.

The next assay concerns the target CDK11B/Cyclin K (Homo sapiens, UniProt P21127). Kind of assay: NanoBRET. It counts as cell-based. The note with it: read-out: NanoBRET EC50 ± SEM CDK11B/Cyclin K. On the procedure:
(§1) The assay was performed as described previously. In brief: Full-length kinases were obtained as plasmids cloned in frame with a terminal NanoLuc-fusion (Promega, Madison, WI, USA), as specified in table (Table S6). Plasmids were transfected into HEK293T cells using FuGENE HD (Promega, E2312) and proteins were allowed to express for 20h. Serially diluted inhibitor and NanoBRET Kinase Tracer (Promega) at a concentration determined previously as the KD,app (Table S5) were pipetted into white 384-well plates (Greiner 781207) using an Echo acoustic dispenser (Labcyte, San Jose, CA, USA). The corresponding protein-transfected cells were added and reseeded at a density of 2.5 × 10^5 cells/mL after trypsinization and resuspending in Opti-MEM without phenol red (Life Technologies, Carlsbad, CA, USA). The system was allowed to equilibrate for 2 h at 37 °C/5% CO2 prior to BRET measurements. To measure BRET, NanoBRET NanoGlo Substrate + Extracellular NanoLuc Inhibitor (Promega, N2540) was added as per the manufacturer’s protocol, and filtered luminescence was measured on a PHERAstar plate reader (BMG Labtech, Ortenberg, Germany) equipped with a luminescence filter pair (450 nm BP filter (donor) and 610 nm LP filter (acceptor)). Competitive displacement data were then graphed using GraphPad Prism 9 software using a normalized 3-parameter curve fit with the following equation: Y = 100/(1 + 10^(X–LogEC50)).

The next assay deals with T3, CDK13/Cyclin K (Homo sapiens, UniProt Q14004).
T3 construct: Full-length kinases were obtained as plasmids cloned in frame with a terminal NanoLuc-fusion; CS1810C93 (CCNK); host or cells: HEK293T
T3 sequence (Q14004 whole entry, the tested form may be a part): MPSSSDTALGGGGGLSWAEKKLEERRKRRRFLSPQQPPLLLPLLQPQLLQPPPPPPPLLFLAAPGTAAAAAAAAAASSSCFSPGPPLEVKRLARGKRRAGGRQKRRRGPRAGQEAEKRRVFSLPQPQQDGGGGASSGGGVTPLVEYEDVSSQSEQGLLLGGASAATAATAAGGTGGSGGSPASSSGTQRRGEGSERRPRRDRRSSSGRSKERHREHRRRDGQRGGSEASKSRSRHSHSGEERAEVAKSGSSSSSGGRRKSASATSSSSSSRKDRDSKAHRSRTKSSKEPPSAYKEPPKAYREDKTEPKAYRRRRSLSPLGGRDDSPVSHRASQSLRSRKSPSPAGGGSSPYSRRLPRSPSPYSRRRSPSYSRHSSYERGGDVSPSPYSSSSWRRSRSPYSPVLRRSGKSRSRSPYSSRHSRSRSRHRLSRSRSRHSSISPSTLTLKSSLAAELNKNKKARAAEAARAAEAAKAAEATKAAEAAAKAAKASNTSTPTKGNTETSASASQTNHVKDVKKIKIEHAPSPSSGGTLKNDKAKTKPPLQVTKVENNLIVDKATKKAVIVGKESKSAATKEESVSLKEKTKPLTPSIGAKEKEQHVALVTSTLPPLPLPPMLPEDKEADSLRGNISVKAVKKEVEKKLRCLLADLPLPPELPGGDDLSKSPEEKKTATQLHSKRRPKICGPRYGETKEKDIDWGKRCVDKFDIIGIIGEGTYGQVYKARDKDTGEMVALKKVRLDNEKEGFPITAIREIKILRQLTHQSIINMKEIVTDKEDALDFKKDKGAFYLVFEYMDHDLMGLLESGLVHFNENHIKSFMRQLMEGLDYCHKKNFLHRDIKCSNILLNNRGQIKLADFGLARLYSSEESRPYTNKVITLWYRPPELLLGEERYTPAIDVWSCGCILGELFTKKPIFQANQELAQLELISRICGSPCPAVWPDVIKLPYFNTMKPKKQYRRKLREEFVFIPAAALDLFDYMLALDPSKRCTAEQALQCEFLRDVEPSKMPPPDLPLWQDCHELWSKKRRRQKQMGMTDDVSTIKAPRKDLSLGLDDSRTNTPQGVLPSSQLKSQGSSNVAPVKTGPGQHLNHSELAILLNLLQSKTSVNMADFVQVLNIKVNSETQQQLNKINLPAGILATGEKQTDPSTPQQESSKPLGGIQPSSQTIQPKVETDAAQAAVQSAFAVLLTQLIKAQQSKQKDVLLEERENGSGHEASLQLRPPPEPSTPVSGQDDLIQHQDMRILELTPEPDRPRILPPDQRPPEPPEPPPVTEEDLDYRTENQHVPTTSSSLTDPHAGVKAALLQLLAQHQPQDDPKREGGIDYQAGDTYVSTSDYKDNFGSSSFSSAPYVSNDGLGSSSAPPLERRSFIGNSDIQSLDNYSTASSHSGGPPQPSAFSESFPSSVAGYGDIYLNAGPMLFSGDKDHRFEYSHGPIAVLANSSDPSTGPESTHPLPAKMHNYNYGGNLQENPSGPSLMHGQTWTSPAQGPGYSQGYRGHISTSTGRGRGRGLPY
T3 sequence (O75909 whole entry partner, the tested form may be a part): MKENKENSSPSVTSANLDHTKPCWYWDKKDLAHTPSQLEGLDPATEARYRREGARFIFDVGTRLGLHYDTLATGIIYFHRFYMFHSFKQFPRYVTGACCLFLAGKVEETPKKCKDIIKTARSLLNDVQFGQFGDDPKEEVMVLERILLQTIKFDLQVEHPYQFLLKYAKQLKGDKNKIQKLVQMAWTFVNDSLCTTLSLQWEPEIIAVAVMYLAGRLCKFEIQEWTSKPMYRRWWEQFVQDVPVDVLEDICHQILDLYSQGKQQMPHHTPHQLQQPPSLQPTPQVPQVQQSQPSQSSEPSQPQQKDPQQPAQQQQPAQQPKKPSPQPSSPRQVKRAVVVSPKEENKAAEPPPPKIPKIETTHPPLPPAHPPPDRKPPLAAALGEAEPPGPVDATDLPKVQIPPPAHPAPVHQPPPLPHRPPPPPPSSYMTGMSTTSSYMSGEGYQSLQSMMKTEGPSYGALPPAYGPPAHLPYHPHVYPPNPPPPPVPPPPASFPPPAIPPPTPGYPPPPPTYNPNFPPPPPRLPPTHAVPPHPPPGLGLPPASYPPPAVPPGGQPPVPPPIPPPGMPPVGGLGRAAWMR
Nature of the assay: NanoBRET. It counts as cell-based. The note with it: read-out: NanoBRET EC50 ± SEM CDK13/Cyclin K. On the procedure: as §1

A further assay addresses T4, CDK14/Cyclin Y (Homo sapiens, UniProt O94921).
T4 construct: Full-length kinases were obtained as plasmids cloned in frame with a terminal NanoLuc-fusion; CS1810C178 (CCNY); host or cells: HEK293T
Nature of the assay: NanoBRET. The note with it: read-out: NanoBRET EC50 ± SEM CDK14/Cyclin Y. It counts as cell-based. On the procedure: as §1

Another assay addresses T5, CDK15/Cyclin Y (Homo sapiens, UniProt Q96Q40).
T5 construct: Full-length kinases were obtained as plasmids cloned in frame with a terminal NanoLuc-fusion; CS1810C178 (CCNY); host or cells: HEK293T
Kind of assay: NanoBRET. It counts as cell-based. The note with it: read-out: NanoBRET EC50 ± SEM CDK15/Cyclin Y. On the procedure: as §1

A further assay has as its target CDK17/Cyclin Y (Homo sapiens, UniProt Q00537). Nature of the assay: NanoBRET. It counts as cell-based. The note with it: read-out: NanoBRET EC50 ± SEM CDK17/Cyclin Y. On the procedure:
as §1

The next assay addresses CDK18/Cyclin Y (Homo sapiens, UniProt Q07002). Kind of assay: NanoBRET. Format: cell-based. As to conditions: read-out: NanoBRET EC50 ± SEM CDK18/Cyclin Y. On the procedure:
as §1

The next assay deals with T6, CDK2/Cyclin A1 (Homo sapiens, UniProt P24941).
T6 construct: Full-length kinases were obtained as plasmids cloned in frame with a terminal NanoLuc-fusion; CS1810C172 (CCNA1); host or cells: HEK293T
Nature of the assay: NanoBRET. Format: cell-based. The note with it: read-out: NanoBRET EC50 ± SEM CDK2/Cyclin A1. On the procedure: as §1

In the next assay the target is T7, CDK2/Cyclin A2 (Homo sapiens, UniProt P24941).
T7 construct: Full-length kinases were obtained as plasmids cloned in frame with a terminal NanoLuc-fusion; CCNA2: 'Promega', no number; host or cells: HEK293T
Nature of the assay: NanoBRET. Format: cell-based. The note with it: read-out: NanoBRET EC50 ± SEM CDK2/Cyclin A2. On the procedure: as §1

For a further assay, the target named is CDK20/Cyclin H (Homo sapiens, UniProt Q8IZL9). Kind of assay: NanoBRET. The note with it: read-out: NanoBRET EC50 ± SEM CDK20/Cyclin H. It counts as cell-based. On the procedure: as §1
Sequence of CDK20/Cyclin H (Q8IZL9 whole entry): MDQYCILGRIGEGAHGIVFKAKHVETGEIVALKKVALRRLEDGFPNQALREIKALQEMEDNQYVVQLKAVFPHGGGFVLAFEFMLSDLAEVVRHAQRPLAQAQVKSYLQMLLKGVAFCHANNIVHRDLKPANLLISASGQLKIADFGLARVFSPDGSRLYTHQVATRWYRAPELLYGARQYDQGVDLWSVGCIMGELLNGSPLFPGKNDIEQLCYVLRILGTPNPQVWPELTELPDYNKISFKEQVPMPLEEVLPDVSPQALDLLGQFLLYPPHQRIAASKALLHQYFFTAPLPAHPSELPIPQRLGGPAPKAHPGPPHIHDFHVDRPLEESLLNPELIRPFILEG
Sequence of CDK20/Cyclin H (P51946 whole entry partner): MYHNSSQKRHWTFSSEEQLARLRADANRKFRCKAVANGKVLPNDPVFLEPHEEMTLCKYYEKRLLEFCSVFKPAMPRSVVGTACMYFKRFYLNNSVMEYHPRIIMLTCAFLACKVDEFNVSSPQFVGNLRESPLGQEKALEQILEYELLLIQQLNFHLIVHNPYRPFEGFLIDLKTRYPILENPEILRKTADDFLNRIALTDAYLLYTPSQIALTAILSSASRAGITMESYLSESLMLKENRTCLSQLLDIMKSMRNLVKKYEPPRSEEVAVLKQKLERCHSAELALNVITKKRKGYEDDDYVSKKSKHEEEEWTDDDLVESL
The target in another assay is T8, CDK3/Cyclin E2 (Homo sapiens, UniProt Q00526).
T8 construct: Full-length kinases were obtained as plasmids cloned in frame with a terminal NanoLuc-fusion; CCNE2: 'Promega', no number; host or cells: HEK293T
Nature of the assay: NanoBRET. It counts as cell-based. The note with it: read-out: NanoBRET EC50 ± SEM CDK3/Cyclin E2. On the procedure: as §1

The target of a further assay is T9, CDK4/Cyclin D1 (Homo sapiens, UniProt P11802).
T9 construct: Full-length kinases were obtained as plasmids cloned in frame with a terminal NanoLuc-fusion; CS1810C118 (CCND1); host or cells: HEK293T
Kind of assay: NanoBRET. It counts as cell-based. The note with it: read-out: NanoBRET EC50 ± SEM CDK4/Cyclin D1. On the procedure:
as §1

The next assay addresses T10, CDK6/Cyclin D3 (Homo sapiens, UniProt Q00534).
T10 construct: Full-length kinases were obtained as plasmids cloned in frame with a terminal NanoLuc-fusion; CS1810C87 (CCND3); host or cells: HEK293T
Nature of the assay: NanoBRET. As to conditions: read-out: NanoBRET EC50 ± SEM CDK6/Cyclin D3. It counts as cell-based. On the procedure:
as §1

The next assay deals with T11, CDK7 (Homo sapiens, UniProt P50613).
T11 construct: Full-length kinases were obtained as plasmids cloned in frame with a terminal NanoLuc-fusion; host or cells: HEK293T
T11 sequence (P50613 whole entry, the tested form may be a part): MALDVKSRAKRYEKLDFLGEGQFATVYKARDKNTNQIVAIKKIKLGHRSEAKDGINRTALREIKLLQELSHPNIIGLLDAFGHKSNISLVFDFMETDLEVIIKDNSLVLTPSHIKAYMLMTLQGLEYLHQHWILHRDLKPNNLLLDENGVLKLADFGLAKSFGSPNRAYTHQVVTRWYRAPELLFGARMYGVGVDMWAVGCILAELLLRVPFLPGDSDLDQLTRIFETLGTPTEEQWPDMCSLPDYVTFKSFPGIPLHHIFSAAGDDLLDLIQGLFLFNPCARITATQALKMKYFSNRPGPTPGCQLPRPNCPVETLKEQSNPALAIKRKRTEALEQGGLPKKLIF
Kind of assay: NanoBRET. Format: cell-based. The note with it: read-out: NanoBRET EC50 ± SEM CDK7. On the procedure: as §1

The target of the next assay is T12, CDK9/Cyclin T1 (Homo sapiens, UniProt P50750).
T12 construct: Full-length kinases were obtained as plasmids cloned in frame with a terminal NanoLuc-fusion; CS1810C177 (CCNT1); host or cells: HEK293T
Kind of assay: NanoBRET. It counts as cell-based. The note with it: read-out: NanoBRET EC50 ± SEM CDK9/Cyclin T1. On the procedure: as §1

T10 sequence (Q00534 whole entry, the tested form may be a part): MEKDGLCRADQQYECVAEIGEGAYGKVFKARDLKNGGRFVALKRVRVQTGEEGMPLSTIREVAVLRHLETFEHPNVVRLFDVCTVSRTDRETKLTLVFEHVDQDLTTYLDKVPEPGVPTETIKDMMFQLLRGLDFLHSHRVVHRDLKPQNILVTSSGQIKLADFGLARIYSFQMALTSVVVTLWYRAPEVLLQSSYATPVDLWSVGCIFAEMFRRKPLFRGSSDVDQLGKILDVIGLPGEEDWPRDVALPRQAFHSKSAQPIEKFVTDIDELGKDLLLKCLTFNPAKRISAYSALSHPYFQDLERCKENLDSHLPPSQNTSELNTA
T10 sequence (P30281 whole entry partner, the tested form may be a part): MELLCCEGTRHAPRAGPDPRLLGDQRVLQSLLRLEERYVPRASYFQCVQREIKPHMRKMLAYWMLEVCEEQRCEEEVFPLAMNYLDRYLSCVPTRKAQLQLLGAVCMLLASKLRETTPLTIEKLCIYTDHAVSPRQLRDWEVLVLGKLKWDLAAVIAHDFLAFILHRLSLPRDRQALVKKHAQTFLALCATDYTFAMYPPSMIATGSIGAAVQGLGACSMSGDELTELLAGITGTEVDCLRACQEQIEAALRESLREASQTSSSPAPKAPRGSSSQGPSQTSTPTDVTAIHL
T5 sequence (Q96Q40 whole entry, the tested form may be a part): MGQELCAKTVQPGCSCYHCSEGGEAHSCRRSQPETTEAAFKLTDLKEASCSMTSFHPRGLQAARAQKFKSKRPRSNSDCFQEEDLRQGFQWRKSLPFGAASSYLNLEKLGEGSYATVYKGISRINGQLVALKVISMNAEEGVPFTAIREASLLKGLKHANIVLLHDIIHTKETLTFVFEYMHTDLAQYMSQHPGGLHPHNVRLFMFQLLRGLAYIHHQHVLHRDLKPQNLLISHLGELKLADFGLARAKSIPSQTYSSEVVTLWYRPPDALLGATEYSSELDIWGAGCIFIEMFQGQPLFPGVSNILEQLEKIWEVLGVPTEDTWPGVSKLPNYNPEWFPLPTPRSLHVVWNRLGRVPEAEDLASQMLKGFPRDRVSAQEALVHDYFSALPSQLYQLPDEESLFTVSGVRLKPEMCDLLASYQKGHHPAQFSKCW
T5 sequence (Q8ND76 2-341 partner limits assumed): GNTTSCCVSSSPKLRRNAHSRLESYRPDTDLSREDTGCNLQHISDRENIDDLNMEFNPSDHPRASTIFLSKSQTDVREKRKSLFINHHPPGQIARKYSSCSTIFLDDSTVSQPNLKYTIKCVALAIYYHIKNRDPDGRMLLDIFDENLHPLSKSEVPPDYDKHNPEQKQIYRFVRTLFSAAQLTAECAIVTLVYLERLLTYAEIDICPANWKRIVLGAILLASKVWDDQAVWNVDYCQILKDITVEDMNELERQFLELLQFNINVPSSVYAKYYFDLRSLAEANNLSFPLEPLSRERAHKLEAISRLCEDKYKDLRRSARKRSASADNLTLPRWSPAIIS
Method for MAPK15: (§2) Recombinant protein kinase domains with a concentration of 2 μM were mixed with a 10 μM compound solution in DMSO, 20 mM HEPES, pH 7.5, and 500 mM NaCl. SYPRO Orange (5000×, Invitrogen) was added as a fluorescence probe (1 µl per mL). Subsequently, temperature-dependent protein unfolding profiles were measured, using the QuantStudio™ 5 realtime PCR machine (Thermo Fisher, Waltham, MA, USA). […] The temperature was raised with a step rate of 3 °C per minute. Data points were analyzed with the internal software (Thermal Shift SoftwareTM Version 1.4, Thermo Fisher) using the Boltzmann equation to determine the inflection point of the transition curve [56]. Differences in melting temperature are given as ΔTm values in °C. Measurements were performed in duplicates.
Method for STK38L: as §2

With `COC(=O)c1cc(Nc2ccnc(NCCOCCNC(=O)OC(C)(C)C)n2)[nH]n1` [21d, methyl 5-((2-((2-(2-((tert-butoxycarbonyl)amino)ethoxy)ethyl)amino)pyrimidin-4-yl)amino)-1H-pyrazole-3-carboxylate], the “ΔTm MAPK15” value at MAPK15 came out at 4.1 °C. Moreover, the “ΔTm STK38L” value on STK38L worked out at 1.2 °C.
As to `COC(=O)c1cc(Nc2ccnc(NCc3ccc(NC(=O)OC(C)(C)C)cc3)n2)[nH]n1` [21i, methyl 5-((2-((4-((tert-butoxycarbonyl)amino)benzyl)amino)pyrimidin-4-yl)amino)-1H-pyrazole-3-carboxylate], the “ΔTm MAPK15” value on MAPK15 is 5.9 °C. Moreover, the “ΔTm STK38L” value on STK38L was 0.9 °C. Further, the EC50 was determined as 22.9 ± 3.74 µM on CDK11B/Cyclin K; 24.2 ± 5.88 µM on CDK13/Cyclin K; 1.37 ± 0.374 µM on CDK14/Cyclin Y; 2.09 ± 0.496 µM on CDK15/Cyclin Y; 0.673 µM at CDK17/Cyclin Y; 1.62 ± 0.287 µM at CDK18/Cyclin Y. Further, the EC50 came to 36.7 ± 3.31 µM at CDK2/Cyclin A1; 11.7 ± 2.33 µM at CDK2/Cyclin A2; 8.42 ± 0.629 µM on CDK20/Cyclin H; 38.8 ± 4.64 µM at CDK3/Cyclin E2; 10.9 ± 3.92 µM at CDK4/Cyclin D1; 6.55 ± 3.48 µM on CDK6/Cyclin D3. Further, the results for the EC50 on CDK7 and at CDK9/Cyclin T1 were 10.4 ± 4.77 µM and 6.87 ± 2.19 µM, respectively.
`CC(C)OC(=O)c1cc(Nc2ccnc(NCc3ccc(NC(=O)OC(C)(C)C)cc3)n2)n[nH]1` [42d, isopropyl 3-((2-((4-((tert-butoxycarbonyl)amino)benzyl)amino)pyrimidin-4-yl)amino)-1H-pyrazole-5-carboxylate]: on MAPK15, the “ΔTm MAPK15” value was 7.0 °C. The “ΔTm STK38L” value at STK38L turned out to be 0.0 °C. The EC50 worked out at 3.86 ± 1.05 µM at CDK11B/Cyclin K; 3.83 ± 2.28 µM on CDK13/Cyclin K; 0.0882 ± 0.0488 µM at CDK14/Cyclin Y; 0.167 ± 0.0149 µM at CDK15/Cyclin Y; 0.0337 ± 0.0025 µM at CDK17/Cyclin Y; 0.128 ± 0.0104 µM on CDK18/Cyclin Y. In addition, the EC50 on CDK2/Cyclin A1 was found to be 32.5 ± 13.9 µM; on CDK2/Cyclin A2, 2.84 ± 1.35 µM; on CDK20/Cyclin H, 0.745 ± 0.35 µM; on CDK3/Cyclin E2, 26.9 ± 13.4 µM; at CDK4/Cyclin D1, 1.6 ± 0.409 µM; on CDK6/Cyclin D3, 2.08 ± 0.935 µM. Also, the figures for the EC50 on CDK7 and at CDK9/Cyclin T1 were 1.14 ± 0.658 µM and 0.408 ± 0.14 µM, respectively.
`CC(C)(C)OC(=O)Nc1ccc(CNc2nccc(Nc3cc(C(=O)OC(C)(C)C)[nH]n3)n2)cc1` [43d, tert-butyl 3-((2-((4-((tert-butoxycarbonyl)amino)benzyl)amino)pyrimidin-4-yl)amino)-1H-pyrazole-5-carboxylate]: the “ΔTm MAPK15” value at MAPK15 stood at 5.8 °C. Besides, at STK38L, the “ΔTm STK38L” value came to 0.0 °C. For the same molecule, the EC50 on CDK11B/Cyclin K was 7.96 ± 3.29 µM; on CDK14/Cyclin Y, 0.0721 µM; at CDK15/Cyclin Y it was 0.302 µM; at CDK17/Cyclin Y, 0.0212 µM; on CDK18/Cyclin Y, 0.121 µM; on CDK2/Cyclin A1 it was 1.67 ± 0.42 µM. For the same molecule, the EC50 was 1.52 ± 0.449 µM on CDK2/Cyclin A2; 1.71 ± 0.222 µM on CDK20/Cyclin H; 16.1 ± 7.62 µM on CDK3/Cyclin E2; 2.14 ± 0.75 µM at CDK4/Cyclin D1; 2.91 ± 1.57 µM at CDK6/Cyclin D3; 1.46 ± 0.552 µM on CDK7. Also, the EC50 at CDK9/Cyclin T1 stood at 0.805 ± 0.24 µM.
Consider `N#CCc1ccc(Nc2nccc(Nc3cc(C4CC4)[nH]n3)n2)cc1` [compound 1, reference compound], for which the “ΔTm MAPK15” value at MAPK15 amounted to 17.4 °C. For the same molecule, at STK38L, the “ΔTm STK38L” value is 8.7 °C. For the same molecule, the EC50 on CDK11B/Cyclin K turned out to be 0.926 ± 0.649 µM; at CDK13/Cyclin K it was 0.0661 ± 0.0199 µM; on CDK14/Cyclin Y, 0.0337 ± 0.0082 µM; at CDK15/Cyclin Y it was 0.0934 ± 0.0417 µM; on CDK17/Cyclin Y it was 0.0099 ± 0.0012 µM; on CDK18/Cyclin Y, 0.025 ± 0.0089 µM. For the same molecule, the EC50 on CDK2/Cyclin A1 was 0.06 ± 0.0411 µM; at CDK2/Cyclin A2, 0.0281 ± 0.0075 µM; at CDK20/Cyclin H, 2.66 ± 0.568 µM; at CDK3/Cyclin E2 it was 0.0384 ± 0.0304 µM; on CDK4/Cyclin D1, 0.0936 ± 0.0236 µM; at CDK6/Cyclin D3 it was 0.0453 ± 0.0356 µM. Further, the EC50 at CDK7 is 0.103 ± 0.0432 µM; at CDK9/Cyclin T1, 0.0865 ± 0.0109 µM.

For the origin of these results see paper PMC9736855, “Discovery of 3-Amino-1H-pyrazole-Based Kinase Inhibitors to Illuminate the Understudied PCTAIRE Family” (International Journal of Molecular Sciences, 2022).
